Results: publication PMC2874095 (Journal of medicinal chemistry, 2010)
Positions count from the first letter of the chain named. Read-outs that look alike come from different tables or passages of the source.

How the values were obtained:
N1L [1] = molecular target: T1, N1L (Vaccinia virus, UniProt P17361); assay type: binding
T1 sequence (P17361 1-117): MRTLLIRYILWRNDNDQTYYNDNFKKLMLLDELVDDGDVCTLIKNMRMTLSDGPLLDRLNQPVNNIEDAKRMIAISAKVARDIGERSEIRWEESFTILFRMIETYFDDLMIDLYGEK

N1L I6K = molecular target: T2, N1L I6K (Vaccinia virus, UniProt P17361, I6K); assay type: binding
T2 sequence (P17361 1-117 I6K): T1 sequence (P17361 1-117) with I6K

N1L [2] = molecular target: T1, N1L; assay type: binding; remark: listed apart in the source
Bcl-2 = Bcl-2 (Homo sapiens, UniProt P10415); assay type: binding; conditions: FPA, incomplete titration curves
Bcl-XL = Bcl-XL (Homo sapiens, UniProt Q07817); assay type: binding; conditions: FPA, incomplete titration curves
VacV-GFP = assay type: cell-based, vaccinia virus
[3] = compound concentrations above 100 μM

Bcl-XL, sequence (Q07817 whole entry): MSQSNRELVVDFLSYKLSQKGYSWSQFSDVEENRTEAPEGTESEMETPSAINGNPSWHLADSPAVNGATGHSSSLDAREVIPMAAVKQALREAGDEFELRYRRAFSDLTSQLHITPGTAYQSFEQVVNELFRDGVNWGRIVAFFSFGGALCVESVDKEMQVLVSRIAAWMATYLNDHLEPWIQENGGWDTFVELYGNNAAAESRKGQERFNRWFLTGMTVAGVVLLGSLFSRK
Bcl-2, sequence (P10415 whole entry): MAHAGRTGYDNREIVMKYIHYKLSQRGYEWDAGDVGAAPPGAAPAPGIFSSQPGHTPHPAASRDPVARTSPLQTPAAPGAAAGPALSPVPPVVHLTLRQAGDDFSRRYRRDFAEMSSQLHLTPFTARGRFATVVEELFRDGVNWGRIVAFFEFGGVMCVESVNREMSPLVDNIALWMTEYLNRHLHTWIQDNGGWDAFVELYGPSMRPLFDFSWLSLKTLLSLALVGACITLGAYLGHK

Compound | ΔH of N1L unfolding (N1L [1]) [kcal/mol] | binding to Bcl-2 (in words) (Bcl-2) | binding to Bcl-XL (in words) (Bcl-XL) | non-specific cytotoxicity (in words) (CV1 and HT1080 cells; [3]) | also measured
Oc1cc(Cc2ccccc2)c(Cc2ccccc2)cc1O [Ligand 12] | 11.2 |  |  |  | 
Oc1ccc(/C=C/c2cc(O)cc(O)c2)cc1 [Ligand 4, trans-Resveratrol] | 10.3 |  |  |  | Tm of N1L I6K (N1L I6K): 61.1 °C; ΔH of N1L I6K unfolding (N1L I6K): 15.9 kcal/mol; N1L inhibition (in words) (N1L [2]): moderate N1L inhibitor
COc1cc(C(c2ccccc2)c2ccccc2)c2ccccc2c1O [Ligand 6] | 8.7 |  |  |  | 
Oc1cc(C(c2ccccc2)c2ccccc2)c2ccccc2c1O [Ligand 7] | 12.3 | poor ligand binding | poor ligand binding |  | 
Oc1ccc(/C=N/c2ccccc2/N=C/c2ccc(O)c(O)c2)cc1O [Ligand 9] | 17.8 |  |  | no significant non-specific cytotoxicity | 
COc1ccc(CCc2cc(OC)c(O)c(OC)c2)cc1 [Ligand 3] | 11.0 |  |  |  | 
COc1ccc(C(C)c2cc(OC)c(OC)c(OC)c2)cc1 (centres unmarked) [Ligand 2] |  |  |  | no significant non-specific cytotoxicity | 
COc1cc(-c2ccc3cc(OC)c(OC)c(OC)c3c2)cc(OC)c1OC [Ligand 11] | 20.3 | poor ligand binding | poor ligand binding | no significant non-specific cytotoxicity | effect on N1L enthalpy of unfolding (in words) (N1L [1]): increase of enthalpy of unfolding; effect on N1L melting temperature (in words) (N1L [1]): slight decrease of melting temperature
COc1ccc2ccccc2c1-c1c(O)ccc2ccccc12 [Ligand 8] |  | cross-reactivity | cross-reactivity |  | non-specific cytotoxicity (in words) (CV1 and HT1080 cells; absence of VacV-GFP, up to 150 μM): cytotoxicity in uninfected cells; antiviral activity (in words) (VacV-GFP): poor antiviral
